The source of these data is patent publication US7851637B2, “Compounds and methods for inhibiting the interaction of BCL proteins with binding partners” (Infinity Pharmaceuticals, Inc., priority 2004, dated 2010).

The target of one test is Bcl-xL (Homo sapiens, UniProt Q07817). The experiment in a line: Bcl-xL binding affinity analysis (fluorescence polarization binding assay). Also on record: scale not given here. The essentials:
(§1)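 FP readout; quantitative in vitro binding format; same method applied to both anti-apoptotic proteins.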

In the next test the target is Bcl-2 (Homo sapiens, UniProt P10415). Description: Bcl-2 binding affinity analysis (fluorescence polarization binding assay). The essentials: as §1
Sequence of Bcl-2 (P10415 whole entry): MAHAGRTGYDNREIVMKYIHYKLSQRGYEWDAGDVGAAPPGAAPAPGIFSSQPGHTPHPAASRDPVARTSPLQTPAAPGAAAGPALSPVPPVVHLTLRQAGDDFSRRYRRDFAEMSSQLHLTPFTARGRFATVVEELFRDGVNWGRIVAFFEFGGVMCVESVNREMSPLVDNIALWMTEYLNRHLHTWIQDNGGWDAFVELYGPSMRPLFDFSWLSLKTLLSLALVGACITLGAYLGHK
On the technique in general: Polarisation of emitted light reports the rotation of a fluorescent probe.

Sequence of Bcl-xL (Q07817 whole entry): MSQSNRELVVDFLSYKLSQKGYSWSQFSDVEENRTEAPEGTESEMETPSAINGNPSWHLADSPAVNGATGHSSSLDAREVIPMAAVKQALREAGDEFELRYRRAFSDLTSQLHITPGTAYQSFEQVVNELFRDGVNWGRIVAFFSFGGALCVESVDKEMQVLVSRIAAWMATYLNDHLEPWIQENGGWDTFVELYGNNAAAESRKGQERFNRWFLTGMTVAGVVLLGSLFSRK

In general, Ki refers to the dissociation constant of the complex between target and ligand, obtained from inhibition or displacement. `C[C@@H]1[C@@H](NC(=O)[C@@H]2[C@H]([C@H](C)O)[C@H](CO)ON2Cc2cccc(-c3cccc(C(=O)N4CCN(C)CC4)c3)c2)C[C@H]2C[C@@H]1C2(C)C` [Compound 129]: at Bcl-xL, the “Bcl-XL binding affinity Ki” value is listed as “♯♯”. Also, the inhibition constant (Ki) at Bcl-2 is under 800 nM.
Take `CC(O)C1C(CO)ON(Cc2cccc(CN3CCN(C(=O)OCc4ccccc4)CC3)c2)C1C(=O)NC1CC2CC(C1C)C2(C)C` (stereo not shown) [Compound 458]: the “Bcl-XL binding affinity Ki” value at Bcl-xL is recorded as “♯”. For the same compound, at Bcl-2, the Ki fell in the range of 800 to 6000 nM.
Consider `CC(O)C1C(CO)ON(Cc2cccc(CN(CCN(C)C)Cc3ccccc3-c3ccc(F)cc3)c2)C1C(=O)NC1CC2CC(C1C)C2(C)C` (stereo not shown) [Compound 341], for which the “Bcl-XL binding affinity Ki” value on Bcl-xL is “♯”. This compound came in with an inhibition constant (Ki) on Bcl-2 of under 800 nM.
For the compound `C[C@@H](O)[C@H]1[C@@H](CO)ON(Cc2cccc(C#C[C@@H](O)c3ccccc3)c2)[C@H]1C(=O)NCCCN(C)c1ccccc1` [Compound 48], the “Bcl-XL binding affinity Ki” value on Bcl-xL is “♯”. Also, the inhibition constant Ki on Bcl-2 was in the range of 800 to 6000 nM.
Take `C[C@@H]1[C@@H](NC(=O)[C@@H]2[C@H]([C@H](C)O)[C@H](CO)ON2Cc2cccc(-c3cccc(C(=O)NCCN4CCCCC4)c3)c2)C[C@H]2C[C@@H]1C2(C)C` [Compound 105]: the “Bcl-XL binding affinity Ki” value at Bcl-xL is reported as “♯”. The same compound came in with an inhibition constant (Ki) on Bcl-2 of under 800 nM.
Take `COc1ccc(OC)c(CN(Cc2cccc(CN3OC(CO)C(C(C)O)C3C(=O)NC3CC4CC(C3C)C4(C)C)c2)C(CC(C)C)CN(C)C)c1` (stereo not shown) [Compound 333]: at Bcl-xL, the “Bcl-XL binding affinity Ki” value is recorded as “♯”. In addition, at Bcl-2, the inhibition constant (Ki) was under 800 nM.
The matching figures for `CC(C)C[C@@H](CN(C)C)N(Cc1ccccc1)Cc1cccc(CN2O[C@@H](CO)[C@@H]([C@H](C)O)[C@H]2C(=O)NCc2cccc(-c3ccccc3)c2)c1` [Compound 537]: “♯” and 800 to 6000 nM.
As to `C[C@@H]1[C@@H](NC(=O)[C@@H]2[C@H]([C@H](C)O)[C@H](CO)ON2Cc2cccc(CN(CCN(C)C)CC(C)(C)C)c2)C[C@H]2C[C@@H]1C2(C)C` [Compound 213], the “Bcl-XL binding affinity Ki” value at Bcl-xL is listed as “♯”. Moreover, the Ki on Bcl-2 was under 800 nM.
As to `C[C@H](O)[C@@H]1[C@H](CO)ON(Cc2cccc(CN(CCN(C)C)Cc3ccccc3)c2)[C@@H]1C(=O)NCCCCc1ccccc1` [Compound 519], the “Bcl-XL binding affinity Ki” value on Bcl-xL is given as “♯”. This compound also registered a Ki on Bcl-2 of 800 to 6000 nM.
`C[C@@H]1[C@@H](NC(=O)[C@@H]2[C@H]([C@H](C)O)[C@H](CO)ON2Cc2cccc(-c3ccc(C(=O)N(C)C)cc3[N+](=O)[O-])c2)C[C@H]2C[C@@H]1C2(C)C` [Compound 285]: the “Bcl-XL binding affinity Ki” value on Bcl-xL is listed as “♯”. Besides, at Bcl-2, the Ki was under 800 nM.
Consider `C[C@@H]1[C@@H](NC(=O)[C@@H]2[C@H]([C@H](C)O)[C@H](CO)ON2Cc2cccc(-c3cccc(C(N)=O)c3)c2)C[C@H]2C[C@@H]1C2(C)C` [Compound 219], for which, on Bcl-xL, the “Bcl-XL binding affinity Ki” value is recorded as “♯”. In addition, the Ki on Bcl-2 is under 800 nM.
The matching figures for `C[C@@H]1[C@@H](NC(=O)[C@@H]2[C@H]([C@H](C)O)[C@H](CO)ON2Cc2cccc(N3CCN(C(=S)NCCc4ccccc4)CC3)c2)C[C@H]2C[C@@H]1C2(C)C` [Compound 266]: “♯” and under 800 nM.
The matching figures for `C[C@@H]1[C@@H](NC(=O)[C@@H]2[C@H]([C@H](C)O)[C@H](CO)ON2Cc2cccc(-c3ccc(S(=O)(=O)N(C)C)cc3)c2)C[C@H]2C[C@@H]1C2(C)C` [Compound 130]: “♯♯” and under 800 nM.
`CC(O)C1C(CO)ON(Cc2cccc(CN(CCN(C)C)Cc3ccccc3-c3ccc(Cl)cc3)c2)C1C(=O)NC1CC2CC(C1C)C2(C)C` (stereo not shown) [Compound 409]: the “Bcl-XL binding affinity Ki” value at Bcl-xL was “♯”. For the same compound, on Bcl-2, the inhibition constant (Ki) is under 800 nM.
Consider `C[C@@H]1[C@@H](NC(=O)[C@@H]2[C@H]([C@H](C)O)[C@H](CO)ON2Cc2cccc(-c3cccc(C(=O)NCCN(C)C)c3)c2)C[C@H]2C[C@@H]1C2(C)C` [Compound 107], for which, at Bcl-xL, the “Bcl-XL binding affinity Ki” value is given as “♯”. On Bcl-2, this compound returned a Ki of under 800 nM.
As to `C[C@@H]1[C@@H](NC(=O)[C@@H]2C([C@H](C)O)[C@H](CO)ON2Cc2cccc(CN(Cc3ccccc3)C[C@@H]3CCCN3C(=O)OCc3ccccc3)c2)C[C@H]2C[C@@H]1C2(C)C` (stereo partly shown) [Compound 439], the “Bcl-XL binding affinity Ki” value on Bcl-xL was “♯”. Further, the inhibitory constant (Ki) at Bcl-2 is 800 to 6000 nM.
The matching figures for `C[C@@H]1[C@@H](NC(=O)[C@@H]2[C@H]([C@H](C)O)[C@H](CO)ON2Cc2cccc(-c3cccc(C(=O)NCCCn4ccnc4)c3)c2)C[C@H]2C[C@@H]1C2(C)C` [Compound 123]: “♯” and under 800 nM.
As to `C[C@@H]1[C@@H](NC(=O)[C@@H]2[C@H]([C@H](C)O)[C@H](CO)ON2Cc2cccc(-c3cccc(C(=O)NCCN(CCO)CCO)c3)c2)C[C@H]2C[C@@H]1C2(C)C` [Compound 131], the “Bcl-XL binding affinity Ki” value at Bcl-xL is reported as “♯”. The Ki on Bcl-2 was under 800 nM.
With `CCN(CC)CCN(Cc1cccc(CN2OC(CO)C(C(C)O)C2C(=O)NC2CC3CC(C2C)C3(C)C)c1)CC1CCCCC1` (stereo not shown) [Compound 419], at Bcl-xL, the “Bcl-XL binding affinity Ki” value is “♯”. Moreover, the Ki on Bcl-2 is under 800 nM.
As to `CC(=O)Nc1cccc(-c2cccc(CN3O[C@@H](CO)[C@@H]([C@H](C)O)[C@H]3C(=O)NC3C[C@H]4C[C@@H]([C@@H]3C)C4(C)C)c2)c1` (stereo partly shown) [Compound 183], the “Bcl-XL binding affinity Ki” value at Bcl-xL is listed as “♯♯”. The Ki at Bcl-2 is under 800 nM.
In the case of `CC(O)C1C(CO)ON(Cc2cccc(CN3CC(c4ccccc4)CC3CN(C)C)c2)C1C(=O)NC1CC2CC(C1C)C2(C)C` (stereo not shown) [Compound 457], on Bcl-xL, the “Bcl-XL binding affinity Ki” value is “♯”. This compound gave a Ki at Bcl-2 of under 800 nM.
`C[C@H](O)[C@@H]1[C@H](CO)ON(Cc2cccc(CN(CCN(C)C)CC3CCCCC3)c2)[C@@H]1C(=O)NC1C[C@H]2C[C@@H]([C@@H]1C)C2(C)C` (stereo partly shown) [Compound 190]: the “Bcl-XL binding affinity Ki” value at Bcl-xL is reported as “♯”. Also, at Bcl-2, the inhibitory constant (Ki) was under 800 nM.
In the case of `C[C@@H]1[C@@H](NC(=O)[C@@H]2[C@H]([C@H](C)O)[C@H](CO)ON2Cc2cccc(-c3cccc(C(=O)NCCN4CCCC4)c3)c2)C[C@H]2C[C@@H]1C2(C)C` [Compound 215], the “Bcl-XL binding affinity Ki” value at Bcl-xL is on record as “♯”. On Bcl-2, this compound registered a Ki of under 800 nM.
On to `CC(O)C1C(CO)ON(Cc2cccc(C(=O)NC(CC3CCCCC3)CN(C)C)c2)C1C(=O)NC1CC2CC(C1C)C2(C)C` (stereo not shown) [Compound 499], for which the “Bcl-XL binding affinity Ki” value at Bcl-xL is on record as “♯”. Besides, the Ki at Bcl-2 is under 800 nM.
On to `C[C@H](O)[C@@H]1[C@H](CO)ON(Cc2cccc(-c3ccc(C(=O)N[C@H]4CCN(C)C4)cc3)c2)[C@@H]1C(=O)NC1C[C@H]2C[C@@H]([C@@H]1C)C2(C)C` (stereo partly shown) [Compound 231], for which the “Bcl-XL binding affinity Ki” value on Bcl-xL is given as “♯”. Also, the inhibition constant Ki at Bcl-2 was under 800 nM.
In the case of `C[C@@H](O)[C@H]1[C@@H](CO)ON(Cc2cccc(C#CCCCCl)c2)[C@H]1C(=O)NCCCN(C)c1ccccc1` [Compound 44], on Bcl-xL, the “Bcl-XL binding affinity Ki” value is “♯”. In addition, at Bcl-2, the inhibitory constant (Ki) is 6000 to 50000 nM.
The matching figures for `COc1ccc(Br)cc1CN(Cc1cccc(CN2OC(CO)C(C(C)O)C2C(=O)NC2CC3CC(C2C)C3(C)C)c1)C(CC(C)C)CN(C)C` (stereo not shown) [Compound 335]: “♯” and under 800 nM.
`C[C@@H]1[C@@H](NC(=O)[C@@H]2[C@H]([C@H](C)O)[C@H](CO)ON2CCCCN(CCN(C)C)Cc2ccccc2-c2ccccc2)C[C@H]2C[C@@H]1C2(C)C` [Compound 551]: the “Bcl-XL binding affinity Ki” value at Bcl-xL was “♯”. Also, on Bcl-2, the Ki was under 800 nM.
On to `CCCNC(=O)c1cccc(-c2cccc(CN3O[C@@H](CO)[C@@H]([C@H](C)O)[C@H]3C(=O)N[C@H]3C[C@H]4C[C@@H]([C@@H]3C)C4(C)C)c2)c1` [Compound 135], for which the “Bcl-XL binding affinity Ki” value on Bcl-xL is on record as “♯♯”. Besides, the inhibition constant (Ki) on Bcl-2 was under 800 nM.
On to `CC(C)C[C@@H](CN(C)C)N(Cc1ccccc1)Cc1cccc(CN2O[C@@H](CO)[C@@H]([C@H](C)O)[C@H]2C(=O)NCCCN(C)c2ccccc2)c1` [Compound 531], for which, on Bcl-xL, the “Bcl-XL binding affinity Ki” value is recorded as “♯”. For the same compound, the inhibitory constant (Ki) at Bcl-2 is 800 to 6000 nM.
Turning to `CC(C)[C@H](CN(C)C)NC(=O)c1cccc(-c2cccc(CN3O[C@@H](CO)[C@@H]([C@H](C)O)[C@H]3C(=O)N[C@H]3C[C@H]4C[C@@H]([C@@H]3C)C4(C)C)c2)c1` [Compound 103], the “Bcl-XL binding affinity Ki” value on Bcl-xL is “♯”. In addition, the Ki on Bcl-2 is under 800 nM.
As for `C[C@@H](O)[C@H]1[C@@H](CO)ON(Cc2cccc(C#CC(C)(O)c3ccccc3)c2)[C@H]1C(=O)NCC1CCCCC1` (stereo partly shown) [Compound 37], on Bcl-xL, the “Bcl-XL binding affinity Ki” value is listed as “♯”. This compound displayed an inhibitory constant (Ki) on Bcl-2 of 6000 to 50000 nM.
Turning to `C[C@@H]1[C@@H](NC(=O)[C@@H]2[C@H]([C@H](C)O)[C@H](CO)ON2Cc2cccc(-c3ccc(C(=O)N(C)C)cc3)c2)C[C@H]2C[C@@H]1C2(C)C` [Compound 118], the “Bcl-XL binding affinity Ki” value at Bcl-xL is on record as “♯”. This compound also came in with a Ki on Bcl-2 of under 800 nM.
As to `C[C@@H]1[C@@H](NC(=O)[C@@H]2[C@H]([C@H](C)O)[C@H](CO)ON2Cc2cccc(-c3cccc(O)c3)c2)C[C@H]2C[C@@H]1C2(C)C` [Compound 147], the “Bcl-XL binding affinity Ki” value on Bcl-xL was “♯♯”. Moreover, the Ki at Bcl-2 was under 800 nM.
`C[C@@H]1[C@@H](NC(=O)[C@@H]2[C@H]([C@H](C)O)[C@H](CO)ON2Cc2cccc(-c3cccc(C(=O)N[C@@H]4CCN(C)C4)c3)c2)C[C@H]2C[C@@H]1C2(C)C` [Compound 137]: the “Bcl-XL binding affinity Ki” value at Bcl-xL is listed as “♯”. Besides, the Ki on Bcl-2 is under 800 nM.
With `CCN1CCC[C@@H]1CNC(=O)c1cccc(-c2cccc(CN3O[C@@H](CO)[C@@H]([C@H](C)O)[C@H]3C(=O)N[C@H]3C[C@H]4C[C@@H]([C@@H]3C)C4(C)C)c2)c1` [Compound 106], the “Bcl-XL binding affinity Ki” value at Bcl-xL is listed as “♯”. Further, the Ki on Bcl-2 was under 800 nM.
With `C[C@@H]1[C@@H](NC(=O)[C@@H]2C([C@H](C)O)[C@H](CO)ON2Cc2cccc(CN(CCN(C)C)CC3CC4C=CC3C4)c2)C[C@H]2C[C@@H]1C2(C)C` (stereo partly shown) [Compound 401], on Bcl-xL, the “Bcl-XL binding affinity Ki” value is reported as “♯”. The same compound came in with a Ki at Bcl-2 of under 800 nM.
As to `CC(C)C[C@@H](CN(C)C)N(Cc1ccccc1)Cc1cccc(CN2O[C@@H](CO)[C@@H]([C@H](C)O)[C@H]2C(=O)NCc2ccccc2)c1` [Compound 542], the “Bcl-XL binding affinity Ki” value at Bcl-xL was “♯”. The compound also registered a Ki on Bcl-2 of 800 to 6000 nM.
